# Target: T1, RORgT (Homo sapiens, UniProt P51449)
# T1 construct: Gal4 (fusion partner); expressed in transfected cells; host or cells: engineered Jurkat cells (Jurkat pEx/Gal/hRORγ CLBD/HYG pG5luc/blast)
# T1 sequence (P51449 267-516): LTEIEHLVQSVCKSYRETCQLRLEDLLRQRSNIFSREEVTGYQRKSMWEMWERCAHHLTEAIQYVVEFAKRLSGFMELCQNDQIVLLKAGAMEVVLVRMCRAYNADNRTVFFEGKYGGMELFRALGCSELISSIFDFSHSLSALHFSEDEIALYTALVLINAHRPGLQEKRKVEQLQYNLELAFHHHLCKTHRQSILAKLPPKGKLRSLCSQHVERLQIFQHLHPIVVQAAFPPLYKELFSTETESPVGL
# Experiment: RORgT Gal4 Luciferase Reporter Gene Assay
# Format: cell-based
# Details: engineered Jurkat cells overexpressing RORgT (LBD or full length) with Gal4 Luc reporter; 18 hours at 37° C.; 40 μM to 0.67 nM; read-out: RORg_GAL4 EC50
# Experimental: The compound and the cells were incubated for 18 hours at 37° C. in a cell culture incubator. Cells were then lysed with 15 uL of Steady-Glo Luciferase Assay reagent (Promega EZ550), followed by centrifuging the assay plates at 1500 RPM for 1 minute. Subsequently, the plates were read on the Envision (PerkinElmer). The inhibition of constitutive activity of RORgT achieved by graded concentrations of compound was calculated as a percentage of the luminescence signal window reduction over a control compound.
row,EC50 [nM],SMILES
1,14,COc1ccc(Oc2c(Cl)ccc(C(=O)NCc3ccc(S(N)(=O)=O)nc3)c2Cl)cc1C(C)C [Example 101]
2,455,CNC(=O)c1ccc(CNC(=O)c2ccc(Cl)c(Oc3ccc(OC)c(C(C)C)c3)c2Cl)cc1 [Example 102]
3,50,COc1ccc(Oc2c(Cl)ccc(C(=O)N(C)CC3CCN(S(N)(=O)=O)CC3)c2Cl)cc1C(C)C [Example 103]
4,15,COc1ccc(Oc2c(Cl)ccc(C(=O)N(C)CC3CCN(S(C)(=O)=O)CC3)c2Cl)cc1C(C)C [Example 104]
5,30,COc1ccc(Oc2c(Cl)ccc(C(=O)NC(C)c3ccc(S(C)(=O)=O)cc3)c2Cl)cc1C(C)C (centres unmarked) [Example 105]
6,32,COc1ccc(Oc2c(Cl)ccc(NC(=O)CN3CCN(S(C)(=O)=O)CC3)c2Cl)cc1C(C)C [Example 106]
7,35,COc1ccc(Oc2c(Cl)ccc(C(=O)N3CCC4(CCN(S(C)(=O)=O)CC4)C3)c2Cl)cc1C(C)C [Example 107]
8,766,COc1ccc(Oc2c(Cl)ccc(C(=O)N3CCc4cc(N)ccc4C3)c2Cl)cc1C(C)C [Example 108]
9,17,COc1ccc(Oc2c(Cl)ccc(C(=O)N3CCC4(CC3)CN(S(C)(=O)=O)C4)c2Cl)cc1C(C)C [Example 109]
10,39,COc1ccc(Oc2c(Cl)ccc(C(=O)N(C)Cc3ccc(S(N)(=O)=O)cc3)c2Cl)cc1C(C)C [Example 110]
11,936,COC(=O)N1CCC(CNC(=O)c2ccc(Cl)c(Oc3ccc(OC)c(C(C)C)c3)c2Cl)CC1 [Example 111]
12,14,CC(C)c1cc(F)cc(Oc2c(Cl)ccc(C(=O)N3CCC4(CC3)CN(S(C)(=O)=O)C4)c2Cl)c1 [Example 112]
13,27,CC(C)c1cc(Oc2c(Cl)ccc(C(=O)NCC3CCN(S(C)(=O)=O)CC3)c2Cl)ccc1F [Example 113]
14,5.2,CC(C)c1cc(Oc2c(Cl)ccc(C(=O)NCc3ccc(S(N)(=O)=O)cc3)c2Cl)ccc1F [Example 114]
15,25,CCS(=O)(=O)N1CCC(CNC(=O)c2ccc(Cl)c(Oc3cc(F)cc(C(C)C)c3)c2Cl)CC1 [Example 115]
16,350,CC(C)c1cc(F)cc(Oc2c(Cl)ccc(C(=O)NCC3CCN(S(=O)(=O)C(C)C)CC3)c2Cl)c1 [Example 116]
17,6,COc1ncc(Oc2c(Cl)ccc(C(=O)NCc3ccc(S(N)(=O)=O)cc3)c2Cl)cc1C(C)C [Example 117]
18,61,COc1ncc(Oc2c(Cl)ccc(C(=O)N3CCC4(CC3)CN(S(C)(=O)=O)C4)c2Cl)cc1C(C)C [Example 118]
19,11,COc1ncc(Oc2c(Cl)cc(NC(=O)CC3CCN(S(=O)(=O)C4CC4)CC3)cc2Cl)cc1C(C)C [Example 119]
20,37,CCS(=O)(=O)N1CCC(CC(=O)Nc2cc(Cl)c(Oc3cnc(OC)c(C(C)C)c3)c(Cl)c2)CC1 [Example 120]
21,13,COc1ncc(Oc2c(Cl)cc(NC(=O)CC3CCN(S(N)(=O)=O)CC3)cc2Cl)cc1C(C)C [Example 121]
22,3.6,CC(C)c1cc(F)cc(Oc2c(Cl)ccc(C(=O)NCc3ccc(S(C)(=O)=O)cc3)c2Cl)c1 [Example 122]
23,5.4,COc1ncc(Oc2c(Cl)ccc(C(=O)NCc3ccc(S(C)(=O)=O)cc3)c2Cl)cc1C(C)C [Example 123]
24,121,CCS(=O)(=O)N1CC2(CCN(C(=O)c3ccc(Cl)c(Oc4cc(F)cc(C(C)C)c4)c3Cl)CC2)C1 [Example 124]
25,548,CC(C)c1cc(F)cc(Oc2c(Cl)ccc(C(=O)N3CCC4(CC3)CN(S(=O)(=O)C3CC3)C4)c2Cl)c1 [Example 125]
26,3.2,COc1ncc(Oc2c(Cl)cc(NC(=O)CC3CCN(S(C)(=O)=O)CC3)cc2Cl)cc1C1CC1 [Example 126]
27,35,COc1ncc(Oc2c(Cl)cc(NC(=O)CC3CCN(S(=O)(=O)CCl)CC3)cc2Cl)cc1C(C)C [Example 127]
28,139,CC(C)c1cc(F)cc(Oc2c(Cl)ccc(C(=O)NCc3cnn(S(C)(=O)=O)c3)c2Cl)c1 [Example 128]
29,11,COc1ncc(Oc2c(Cl)ccc(NC(=O)CC3CCN(S(C)(=O)=O)CC3)c2Cl)cc1C(C)C [Example 129]

# Source: patent publication US20220306630A1, “AGONISTS OF ROR GAMMAt” (BRISTOL-MYERS SQUIBB COMPANY, priority 2019, published 2022)
